What was measured:
[1] = target: T1, wildtype LRRK2 (Homo sapiens, UniProt Q5S007); assay: LRRK2 degradation assay, wildtype LRRK2-HiBit expressed from plasmid in HEK293 cells; type: cell-based; settings: HEK293 cells transfected with HiBit-tagged wildtype LRRK2, 24 hours compound incubation; for Dmax: read-out: **WT Dmax (%); for DC50: read-out: *WT DC50
T1 construct: expressed in transfected cells; host or cells: HEK293 (ATCC CRL-1573), transient transfection, ubiquitin promoter
Description: (§1) The assay measures the degradation of wildtype and G2019S LRRK2 tagged with a HiBit tag on the C-terminus of the protein that was expressed from a mammalian expression vector, driven by the ubiquitin promoter in HEK293 cells. Each compound dose-response was repeated on two separate days, on three separate plates each day.
(§2) Plasmid Preparation. Transfection mixes were assembled as follows and incubated for 30 minutes at room temperature. In a 15 mL tube, 5.25 mL Opti-MEM (no additions) was mixed with 17 μL Firefly Luciferase plasmid at 1 μg/μL and 158 μL WT plasmid DNA at 1 μg/μL (175 μg total DNA) were mixed by flicking. In a new 15 mL tube, 5.25 mL OptiMEM was mixed with 17 μL Firefly Luciferase plasmid at 1 μg/μL and 158 μL G2019S plasmid DNA at 1 μg/μL (175 μg total DNA) were mixed by flicking. X-tremeGene HP was mixed thoroughly using a vortex. Next, 175 μL was added to each tube and flicked to mix. Both tubes were left to incubate for 30 minutes at room temperature.
(§3) While the transfection mixes were incubating, HEK293 cells (acquired from ATCC; ATCC CRL-1573) were harvested with trypsin. Once cells are detached, the cells were resuspended in 12 mL OptiMEM+5% FBS and transferred to a 50 mL tube. The cells were mixed well and counted. Using OptiMEM+5% FBS, the cells were diluted in two 250 mL conical tubes at 0.71×10^6 cells/mL in 70 mL. One tube was labeled “WT” and the other “G2019S”. The WT and G2019S transfection mixes were added dropwise to the corresponding 250 mL tubes. The tubes were mixed first by pipetting then by swirling. The tubes were incubated at room temperature for at least 5 minutes.
(§4) Each tube was swirled before dispensing and after every three plates. Seventy microliters of cells were dispensed with WT or G2019S DNA to seven plates each. Three plates of each were tested with compound plate one (preparation described below) and three plates of each were tested with compound plate two (preparation described below). The first plate from each set served as a “prime” plate and was not used to test compounds. Each plate was incubated in the hood for 10 minutes before placing in the 37° C. incubator for 24 hours.
(§5) Preparation of Compound and Assay Plates. Two compound plates were made using 96 well polypropylene plates. Compounds were made up at 10 mM and were diluted to 1 mM in 30 μL. Each dose response curve included a well of DMSO, as a negative control and for normalization, and a well of 0.5 μM of Exemplary Compound 4 as a positive control. In addition to seven test compounds, each plate also included a dose response of Exemplary Compound 4. The compound plates were spun down along at 1200 rpm for 2 minutes.
(§6) The two compound plates were then mixed and 2 μL was diluted in intermediate plates having 248 μL of Opti-Mem in each well. Next, 10 μL diluted compounds from the intermediate plates were added to each test plate (three WT and three G2019S plates per compound plate for a total of 12 assay plates). The plates were incubated for 24 hours at 37° C.
(§7) All assay plates and all Nano-Glo Dual-Luciferase Reporter Assay System components (except for the DLR substrate) were equilibrated to room temperature. Next, the luciferase buffer was mixed with the lyophilized amber bottle until fully dissolved, and 75 μL of the luciferase mixture was added to each well of each assay plate. The assay plates were incubated for 10 minutes at room temperature with shaking for at least 5 minutes, and then read on a plate reader.
(§8) Developing Plates and Analyzing Data. One milliliter of DLR substrate and 1 mL LgBiT Protein were added to the Stop and Glo buffer, and 75 μL of the mixture was added to each well of each plate. Optically clear seals were added to each plate and each plate was incubated for 20 minutes with shaking for at least 10 minutes, and then read on a plate reader. […]

[2] = target: T2, G2019S LRRK2 (Homo sapiens, UniProt Q5S007, G2019S); assay: LRRK2 degradation assay, G2019S LRRK2-HiBit expressed from plasmid in HEK293 cells; type: cell-based; settings: HEK293 cells transfected with HiBit-tagged G2019S LRRK2, 24 hours compound incubation
T2 construct: expressed in transfected cells; host or cells: HEK293 (ATCC CRL-1573), transient transfection, ubiquitin promoter
T2 sequence (Q5S007 whole entry G2019S): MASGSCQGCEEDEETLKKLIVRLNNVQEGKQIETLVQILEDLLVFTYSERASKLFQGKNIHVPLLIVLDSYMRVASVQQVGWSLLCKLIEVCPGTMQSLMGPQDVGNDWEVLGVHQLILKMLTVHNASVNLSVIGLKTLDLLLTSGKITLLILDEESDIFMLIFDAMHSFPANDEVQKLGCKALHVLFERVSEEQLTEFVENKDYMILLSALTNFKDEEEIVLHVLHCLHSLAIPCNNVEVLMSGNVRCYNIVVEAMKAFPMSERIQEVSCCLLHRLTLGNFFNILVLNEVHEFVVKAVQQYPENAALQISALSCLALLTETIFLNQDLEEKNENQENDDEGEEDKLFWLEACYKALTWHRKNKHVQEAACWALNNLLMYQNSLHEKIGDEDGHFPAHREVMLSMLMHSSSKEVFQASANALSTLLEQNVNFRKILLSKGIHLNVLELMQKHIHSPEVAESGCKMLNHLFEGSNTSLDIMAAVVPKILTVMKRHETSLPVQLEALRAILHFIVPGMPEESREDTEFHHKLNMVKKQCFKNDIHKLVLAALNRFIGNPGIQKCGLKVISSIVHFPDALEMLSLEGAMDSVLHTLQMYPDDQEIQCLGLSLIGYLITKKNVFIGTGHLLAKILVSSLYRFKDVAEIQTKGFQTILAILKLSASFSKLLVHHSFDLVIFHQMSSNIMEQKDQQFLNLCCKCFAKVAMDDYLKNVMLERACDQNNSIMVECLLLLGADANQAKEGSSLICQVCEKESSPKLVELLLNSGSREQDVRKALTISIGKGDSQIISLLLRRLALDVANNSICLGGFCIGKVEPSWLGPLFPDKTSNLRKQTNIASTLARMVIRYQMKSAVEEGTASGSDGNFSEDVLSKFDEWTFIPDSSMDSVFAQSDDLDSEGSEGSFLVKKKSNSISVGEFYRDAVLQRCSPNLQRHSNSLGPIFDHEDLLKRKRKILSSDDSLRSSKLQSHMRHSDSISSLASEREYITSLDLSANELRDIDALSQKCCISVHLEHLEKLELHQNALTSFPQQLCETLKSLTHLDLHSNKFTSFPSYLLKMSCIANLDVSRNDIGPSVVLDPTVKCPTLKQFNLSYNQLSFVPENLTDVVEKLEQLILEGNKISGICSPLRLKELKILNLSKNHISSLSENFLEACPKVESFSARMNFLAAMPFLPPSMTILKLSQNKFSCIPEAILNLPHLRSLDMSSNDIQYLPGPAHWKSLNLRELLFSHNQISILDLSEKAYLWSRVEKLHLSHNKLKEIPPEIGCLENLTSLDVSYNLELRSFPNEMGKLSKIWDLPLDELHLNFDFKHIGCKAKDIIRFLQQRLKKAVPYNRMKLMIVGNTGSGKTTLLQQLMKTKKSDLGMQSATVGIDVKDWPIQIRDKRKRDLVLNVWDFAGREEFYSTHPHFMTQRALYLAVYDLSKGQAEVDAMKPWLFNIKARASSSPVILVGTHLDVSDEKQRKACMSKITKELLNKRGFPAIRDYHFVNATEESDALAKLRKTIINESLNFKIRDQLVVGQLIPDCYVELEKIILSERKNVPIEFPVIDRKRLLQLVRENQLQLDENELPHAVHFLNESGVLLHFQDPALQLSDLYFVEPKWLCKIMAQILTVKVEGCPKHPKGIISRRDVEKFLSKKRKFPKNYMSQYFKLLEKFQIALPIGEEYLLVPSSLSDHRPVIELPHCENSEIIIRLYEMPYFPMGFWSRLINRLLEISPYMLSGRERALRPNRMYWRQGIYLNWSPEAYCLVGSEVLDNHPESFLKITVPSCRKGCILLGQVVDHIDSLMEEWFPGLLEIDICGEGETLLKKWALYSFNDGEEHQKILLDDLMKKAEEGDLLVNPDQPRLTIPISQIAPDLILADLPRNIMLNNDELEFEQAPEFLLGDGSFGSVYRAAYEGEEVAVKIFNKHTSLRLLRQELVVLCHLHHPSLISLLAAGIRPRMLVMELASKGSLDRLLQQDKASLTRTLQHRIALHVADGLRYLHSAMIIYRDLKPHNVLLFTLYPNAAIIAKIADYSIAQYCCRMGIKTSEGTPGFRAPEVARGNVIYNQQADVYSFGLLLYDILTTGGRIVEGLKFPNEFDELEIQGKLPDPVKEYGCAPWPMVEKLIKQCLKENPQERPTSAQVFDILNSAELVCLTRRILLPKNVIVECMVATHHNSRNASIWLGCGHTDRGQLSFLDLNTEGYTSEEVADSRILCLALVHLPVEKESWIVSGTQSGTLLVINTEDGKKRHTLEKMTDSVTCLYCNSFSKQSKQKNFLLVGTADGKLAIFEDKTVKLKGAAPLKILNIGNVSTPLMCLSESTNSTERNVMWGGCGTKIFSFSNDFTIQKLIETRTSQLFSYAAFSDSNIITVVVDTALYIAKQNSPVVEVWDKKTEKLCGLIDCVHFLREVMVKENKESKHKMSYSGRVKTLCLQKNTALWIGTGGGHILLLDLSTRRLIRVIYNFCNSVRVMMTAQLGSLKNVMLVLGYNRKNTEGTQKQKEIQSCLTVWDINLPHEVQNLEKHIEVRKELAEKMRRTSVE
Description: as §1, §2, §3, §4, §5, §6, §7, §8

T1 sequence (Q5S007 whole entry): as the sequence (Q5S007 whole entry G2019S) above, with S2019G counted along it

Compound	Dmax [1] [%]	DC50 [1] [µM]	DC50 [2] [µM]	Dmax [2] [%]
CC(C)Oc1ccc2[nH]nc(-c3cc(N4CCN(CCCCN5CCN(c6ccc7c(c6)C(=O)N(C6CCC(=O)NC6=O)C7=O)CC5)[C@@H](C)C4)ncn3)c2c1 (stereo partly drawn) [compound 23, 2-(2,6-dioxopiperidin-3-yl)-5-(4-{4-[(2S)-2-methyl-4-{6-[5-(propan-2-yloxy)-1H-indazol-3-yl]pyrimidin-4-yl}piperazin-1-yl]butyl}piperazin-1-yl)-2,3-dihydro-1H-isoindole-1,3-dione]	50 to 70	< 0.01	< 0.01	50 to 70
CC(C)Oc1ccc2[nH]nc(-c3cc(N4CCN(CCC5CCN(CC6CCN(c7ccc8c(c7)C(=O)N(C7CCC(=O)NC7=O)C8=O)CC6)CC5)CC4)ncn3)c2c1 (stereo not shown) [compound 41, 2-(2,6-dioxopiperidin-3-yl)-5-(4-((4-(2-(4-(6-(5-isopropoxy-1H-indazol-3-yl)pyrimidin-4-yl)piperazin-1-yl)ethyl)piperidin-1-yl)methyl)piperidin-1-yl)isoindoline-1,3-dione]	50 to 70	0.01 to 0.05	0.01 to 0.05	50 to 70
CC(C)Oc1ccc2[nH]nc(-c3cc(N4CCN(CCN(C)CCN5CCN(c6ccc7c(c6)C(=O)N(C6CCC(=O)NC6=O)C7=O)CC5)[C@@H](C)C4)ncn3)c2c1 (stereo partly drawn) [compound 37, 2-(2,6-dioxopiperidin-3-yl)-5-(4-{2-[methyl({2-[(2S)-2-methyl-4-{6-[5-(propan-2-yloxy)-1H-indazol-3-yl]pyrimidin-4-yl}piperazin-1-yl]ethyl})amino]ethyl}piperazin-1-yl)-2,3-dihydro-1H-isoindole-1,3-dione]	50 to 70	≥ 0.1	0.05 to 0.1	50 to 70
CC(C)Oc1ccc2[nH]nc(-c3cc(N4CCN(CCN5CC(C6CCN(c7ccc8c(c7)C(=O)N(C7CCC(=O)NC7=O)C8=O)CC6)C5)CC4)ncn3)c2c1 (stereo not shown) [compound 44, 2-(2,6-dioxopiperidin-3-yl)-5-(4-(1-(2-(4-(6-(5-isopropoxy-1H-indazol-3-yl)pyrimidin-4-yl)piperazin-1-yl)ethyl)azetidin-3-yl)piperidin-1-yl)isoindoline-1,3-dione]	50 to 70	0.01 to 0.05	0.01 to 0.05	50 to 70
CC(C)Oc1ccc2[nH]nc(-c3cc(N4CCN(CC5CCN(CC6CCN(c7ccc8c(c7)C(=O)N(C7CCC(=O)NC7=O)C8=O)CC6)CC5)[C@@H](C)C4)ncn3)c2c1 (stereo partly drawn) [compound 25, 2-(2,6-dioxopiperidin-3-yl)-5-{4-[(4-{[(2S)-2-methyl-4-{6-[5-(propan-2-yloxy)-1H-indazol-3-yl]pyrimidin-4-yl}piperazin-1-yl]methyl}piperidin-1-yl)methyl]piperidin-1-yl}-2,3-dihydro-1H-isoindole-1,3-dione]	≥ 70	< 0.01	< 0.01	≥ 70
CC(C)Oc1ccc2[nH]nc(-c3cc(N4CCN(CCCN(C)CCCN5CCN(c6ccc7c(c6)C(=O)N(C6CCC(=O)NC6=O)C7=O)CC5)[C@@H](C)C4)ncn3)c2c1 (stereo partly drawn) [compound 38, 2-(2,6-dioxopiperidin-3-yl)-5-(4-{3-[methyl({3-[(2S)-2-methyl-4-{6-[5-(propan-2-yloxy)-1H-indazol-3-yl]pyrimidin-4-yl}piperazin-1-yl]propyl})amino]propyl}piperazin-1-yl)-2,3-dihydro-1H-isoindole-1,3-dione]	≥ 70	0.05 to 0.1	≥ 0.1	≥ 70
C[C@H]1CN(c2cc(-c3[nH]nc4ccc(OC5(C)CC5)cc34)ncn2)CCN1CCOc1ccc2c(c1)C(=O)N(C1CCC(=O)NC1=O)C2=O (stereo partly drawn) [compound 1, 2-(2,6-dioxopiperidin-3-yl)-5-{2-[(2S)-2-methyl-4-{6-[5-(1-methylcyclopropoxy)-1H-indazol-3-yl]pyrimidin-4-yl}piperazin-1-yl]ethoxy}-2,3-dihydro-1H-isoindole-1,3-dione]	< 50	< 0.01	< 0.01	< 50
CC(C)Oc1ccc2[nH]nc(-c3cc(N4CCO[C@H](CN5CCN(CC6CCN(c7ccc8c(c7)C(=O)N(C7CCC(=O)NC7=O)C8=O)CC6)CC5)C4)ncn3)c2c1 (stereo partly drawn) [compound 48, 2-(2,6-dioxopiperidin-3-yl)-5-(4-((4-(((R)-4-(6-(5-isopropoxy-1H-indazol-3-yl)pyrimidin-4-yl)morpholin-2-yl)methyl)piperazin-1-yl)methyl)piperidin-1-yl)isoindoline-1,3-dione]	50 to 70	< 0.01	< 0.01	50 to 70
CC(C)Oc1ccc2[nH]nc(-c3cc(N4CCN(CCN5CCC(CN6CCN(c7ccc8c(c7)C(=O)N(C7CCC(=O)NC7=O)C8=O)CC6)CC5)[C@@H](C)C4)ncn3)c2c1 (stereo partly drawn) [compound 30, 2-(2,6-dioxopiperidin-3-yl)-5-{4-[(1-{2-[(2S)-2-methyl-4-{6-[5-(propan-2-yloxy)-1H-indazol-3-yl]pyrimidin-4-yl}piperazin-1-yl]ethyl}piperidin-4-yl)methyl]piperazin-1-yl}-2,3-dihydro-1H-isoindole-1,3-dione]	≥ 70	< 0.01	< 0.01	≥ 70
C[C@H]1CN(c2cc(-c3n[nH]c4ccc(OC5(C)CC5)cc34)ncn2)CCN1CCOCCOCCOCCOc1ccc2c(c1)C(=O)N(C1(C)CCC(=O)NC1=O)C2=O (stereo partly drawn) [compound 19, 2-(3-methyl-2,6-dioxopiperidin-3-yl)-5-{2-[2-(2-{2-[(2S)-2-methyl-4-{6-[5-(1-methylcyclopropoxy)-1H-indazol-3-yl]pyrimidin-4-yl}piperazin-1-yl]ethoxy}ethoxy)ethoxy]ethoxy}-2,3-dihydro-1H-isoindole-1,3-dione]	< 50	≥ 0.1	0.01 to 0.05	< 50
C[C@H]1CN(c2cc(-c3n[nH]c4ccc(OC5(C)CC5)cc34)ncn2)CCN1CCOCCOCCOc1ccc2c(c1)C(=O)N(C1CCC(=O)NC1=O)C2=O (stereo partly drawn) [compound 3, 2-(2,6-dioxopiperidin-3-yl)-5-[2-(2-{2-[(2S)-2-methyl-4-{6-[5-(1-methylcyclopropoxy)-1H-indazol-3-yl]pyrimidin-4-yl}piperazin-1-yl]ethoxy}ethoxy)ethoxy]-2,3-dihydro-1H-isoindole-1,3-dione]	≥ 70	< 0.01	0.01 to 0.05	50 to 70
CC(C)Oc1ccc2[nH]nc(-c3cc(N4C[C@@H](C)N(CCOCCOCCOCCOc5ccc6c(c5)C(=O)N(C5CCC(=O)NC5=O)C6=O)[C@@H](C)C4)ncn3)c2c1 (stereo partly drawn) [compound 10, 5-{2-[2-(2-{2-[(2R,6S)-2,6-dimethyl-4-{6-[5-(propan-2-yloxy)-1H-indazol-3-yl]pyrimidin-4-yl}piperazin-1-yl]ethoxy}ethoxy)ethoxy]ethoxy}-2-(2,6-dioxopiperidin-3-yl)-2,3-dihydro-1H-isoindole-1,3-dione]	50 to 70	0.01 to 0.05	0.01 to 0.05	50 to 70
CC1(Oc2ccc3[nH]nc(-c4cc(N5CCO[C@@H](CCOCCOCCOCCOc6ccc7c(c6)C(=O)N(C6CCC(=O)NC6=O)C7=O)C5)ncn4)c3c2)CC1 (stereo partly drawn) [compound 18, 2-(2,6-dioxopiperidin-3-yl)-5-{2-[2-(2-{2-[(2S)-4-{6-[5-(1-methylcyclopropoxy)-1H-indazol-3-yl]pyrimidin-4-yl}morpholin-2-yl]ethoxy}ethoxy)ethoxy]ethoxy}-2,3-dihydro-1H-isoindole-1,3-dione]	≥ 70	< 0.01	< 0.01	≥ 70

Source: US20250114356A1, “INDAZOLE BASED COMPOUNDS AND ASSOCIATED METHODS OF USE” (Arvinas Operations, Inc., priority 2020, published 2025)
